Square brackets hold non-standard residues; d marks the D form. Peptide text beside a SMILES is read from it. * marks the point of attachment. Orn = NCCC[C@H](N)C(=O)O; Hexanoyl = CCCCCC(=O)*; Aib = CC(C)(N)C(=O)O
Tests used:
human VPAC1 = biological target: T1, human VPAC1 (Homo sapiens, UniProt P32241); experiment: Filter binding assay, 125I-labeled VIP tracer, VPAC1 membranes; details: read-out: Human VPAC1 Receptor Binding (IC50; nM)
T1 construct: expressed in transfected cells
T1 sequence (P32241 31-457): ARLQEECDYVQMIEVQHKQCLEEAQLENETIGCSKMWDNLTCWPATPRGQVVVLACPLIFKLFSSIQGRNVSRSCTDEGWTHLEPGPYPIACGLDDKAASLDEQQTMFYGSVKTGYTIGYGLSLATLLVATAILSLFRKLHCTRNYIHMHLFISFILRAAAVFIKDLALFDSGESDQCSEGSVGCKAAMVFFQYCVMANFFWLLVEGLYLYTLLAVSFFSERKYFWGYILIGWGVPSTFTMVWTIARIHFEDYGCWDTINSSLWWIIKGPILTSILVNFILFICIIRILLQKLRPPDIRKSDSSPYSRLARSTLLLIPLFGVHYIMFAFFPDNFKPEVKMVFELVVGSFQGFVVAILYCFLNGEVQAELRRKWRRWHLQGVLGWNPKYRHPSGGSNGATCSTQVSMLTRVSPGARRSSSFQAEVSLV

human PAC1 = biological target: T2, human PAC1 (Homo sapiens, UniProt P41586); experiment: Filter binding assay, 125I-labeled PACAP-27 tracer, PAC1 membranes; details: read-out: Human PAC1 Receptor Binding (IC50; nM)
T2 construct: expressed in transfected cells
T2 sequence (P41586 21-468): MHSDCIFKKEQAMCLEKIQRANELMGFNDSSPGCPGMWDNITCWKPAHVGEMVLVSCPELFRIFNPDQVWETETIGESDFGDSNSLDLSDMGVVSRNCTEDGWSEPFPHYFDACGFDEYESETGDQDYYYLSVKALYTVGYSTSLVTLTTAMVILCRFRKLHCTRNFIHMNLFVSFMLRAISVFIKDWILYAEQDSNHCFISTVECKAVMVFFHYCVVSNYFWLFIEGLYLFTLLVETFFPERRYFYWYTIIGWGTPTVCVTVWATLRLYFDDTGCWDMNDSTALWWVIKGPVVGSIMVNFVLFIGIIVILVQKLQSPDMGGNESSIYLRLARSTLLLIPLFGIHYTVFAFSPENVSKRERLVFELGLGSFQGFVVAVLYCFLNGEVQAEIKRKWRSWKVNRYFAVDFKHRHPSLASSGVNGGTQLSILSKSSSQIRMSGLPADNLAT

rat VPAC1 receptor = biological target: T3, rat VPAC1 receptor (Rattus norvegicus, UniProt P30083); experiment: DiscoveRx cAMP assay, in vitro potency at rat VPAC1 receptor; assay type: cell-based; details: CHO-PO cells transiently transfected with rat VPAC1; cAMP generation; mean of two independent runs
T3 construct: expressed in transfected cells; host or cells: CHO-PO (transient, Lipofectamine)
T3 sequence (P30083 31-459): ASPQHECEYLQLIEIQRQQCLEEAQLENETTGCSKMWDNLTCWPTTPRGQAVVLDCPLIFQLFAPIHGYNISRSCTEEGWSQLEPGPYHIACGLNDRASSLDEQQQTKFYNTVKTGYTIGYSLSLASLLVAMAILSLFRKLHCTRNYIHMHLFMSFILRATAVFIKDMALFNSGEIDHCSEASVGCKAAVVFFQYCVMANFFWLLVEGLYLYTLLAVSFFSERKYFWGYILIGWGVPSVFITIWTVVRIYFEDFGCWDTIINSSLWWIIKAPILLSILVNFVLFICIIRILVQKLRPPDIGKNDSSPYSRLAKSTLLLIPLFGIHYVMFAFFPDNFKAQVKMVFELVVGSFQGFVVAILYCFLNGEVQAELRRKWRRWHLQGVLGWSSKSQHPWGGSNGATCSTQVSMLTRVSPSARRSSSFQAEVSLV
Description: (§1) DiscoveRx: CHO-PO cells are transiently transfected with rat VPAC1 or VPAC2 receptor DNA using commercially available transfection reagents (Lipofectamine from Invitrogen). The cells are seeded at a density of 10,000/well in a 96-well plate and are allowed to grow for 3 days in […] culture medium. At day 3, the assay is performed.
(§2) On the day of the experiment, the medium is removed. Also, the cells are washed twice. The cells are incubated in assay buffer plus IBMX for 15 minutes at room temperature. Afterwards, the stimuli are added and are dissolved in assay buffer. The stimuli are present for 30 minutes. Then, the assay buffer is gently removed. The cell lysis reagent of the DiscoveRx cAMP kit is added. Thereafter, the standard protocol for developing the cAMP signal as described by the manufacturer is used (DiscoveRx Inc., USA). EC50 values for cAMP generation are calculated from the raw signal or are based on absolute cAMP levels as determined by a standard curve performed on each plate.
(§3) Results for each agonist are the mean of two independent runs. Rat VPAC1 and VPAC2 results are only generated using the DiscoveRx assay.

[1] = Rat serum stability (activity remaining, CHO-VPAC2 DiscoveRx read-out); assay type: in vitro ADME
How it was run: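 Peptides preincubated overnight in rat serum at 37 °C without aprotinin versus 4 °C with aprotinin, then tested as 11-point 5× dilutions in duplicate on CHO-VPAC2 cells, 30 min at RT. cAMP measured by DiscoveRx kit against standards; EC50 derived for each aliquot.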

human VPAC2 [2] = biological target: T4, human VPAC2 (Homo sapiens, UniProt P41587); experiment: Filter binding assay, 125I-labeled VIP tracer, VPAC2 membranes; details: read-out: Human VPAC2 Receptor Binding (IC50; nM)
T4 construct: expressed in transfected cells
T4 sequence (P41587 24-438): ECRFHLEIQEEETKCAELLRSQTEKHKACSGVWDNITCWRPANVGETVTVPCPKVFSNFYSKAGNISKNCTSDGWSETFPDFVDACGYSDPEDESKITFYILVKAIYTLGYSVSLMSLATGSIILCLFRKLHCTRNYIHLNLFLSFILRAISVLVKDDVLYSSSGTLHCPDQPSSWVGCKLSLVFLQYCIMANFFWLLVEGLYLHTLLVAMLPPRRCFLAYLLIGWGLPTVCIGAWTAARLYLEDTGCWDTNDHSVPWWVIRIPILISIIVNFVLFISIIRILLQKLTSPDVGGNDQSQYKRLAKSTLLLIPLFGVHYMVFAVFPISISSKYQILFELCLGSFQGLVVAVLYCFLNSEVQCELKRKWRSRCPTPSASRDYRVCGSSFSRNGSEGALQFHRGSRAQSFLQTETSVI
Description: For this assay, the solutions and equipment include:
Presoak solution: 0.5% Polyethyleneamine in Aqua dest
Buffer for flushing filter plates: 25 mM HEPES pH 7.4
Blocking buffer: 25 mM HEPES pH 7.4; 0.2% protease free BSA
Assay buffer: 25 mM HEPES pH 7.4; 0.5% protease free BSA
Dilution and assay plate: PS-Microplate, U form
Filtration Plate: Multiscreen FB Opaque Plate; 1.0 μM Type B Glasfiber filter
In order to prepare the filter plates, the presoak solution is aspirated by vacuum filtration. The plates are flushed twice with 200 μL flush buffer. 200 μL blocking buffer is added to the filter plate. The filter plate is then incubated with 200 μL presoak solution for 1 hour at room temperature.
The assay plate is filled with 25 μL assay buffer, 25 μL membranes (2.5 μg) suspended in assay buffer, 25 μL compound (agonist) in assay buffer, and 25 μL tracer (about 40000 cpm) in assay buffer. The filled plate is incubated for 1 hour with shaking.
The transfer from assay plate to filter plate is conducted. The blocking buffer is aspirated by vacuum filtration and washed two times with flush buffer. 90 μL is transferred from the assay plate to the filter plate. The 90 μL transferred from assay plate is aspirated and washed three times with 200 μL flush buffer. The plastic support is removed. It is dried for 1 hour at 60° C. 30 μL Microscint is added. The count is performed.

human VPAC2 [3] = biological target: T4, human VPAC2; experiment: Alpha screen cAMP assay, in vitro potency at human VPAC2 receptor; assay type: cell-based; details: cAMP generation; single result from two analyses in a single run, some values average of more than one experiment
rat VPAC2 receptor = biological target: T5, rat VPAC2 receptor (Rattus norvegicus, UniProt P35000); experiment: DiscoveRx cAMP assay, in vitro potency at rat VPAC2 receptor; assay type: cell-based; details: CHO-PO cells transiently transfected with rat VPAC2; cAMP generation; mean of two independent runs
T5 construct: expressed in transfected cells; host or cells: CHO-PO (transient, Lipofectamine)
T5 sequence (P35000 23-437): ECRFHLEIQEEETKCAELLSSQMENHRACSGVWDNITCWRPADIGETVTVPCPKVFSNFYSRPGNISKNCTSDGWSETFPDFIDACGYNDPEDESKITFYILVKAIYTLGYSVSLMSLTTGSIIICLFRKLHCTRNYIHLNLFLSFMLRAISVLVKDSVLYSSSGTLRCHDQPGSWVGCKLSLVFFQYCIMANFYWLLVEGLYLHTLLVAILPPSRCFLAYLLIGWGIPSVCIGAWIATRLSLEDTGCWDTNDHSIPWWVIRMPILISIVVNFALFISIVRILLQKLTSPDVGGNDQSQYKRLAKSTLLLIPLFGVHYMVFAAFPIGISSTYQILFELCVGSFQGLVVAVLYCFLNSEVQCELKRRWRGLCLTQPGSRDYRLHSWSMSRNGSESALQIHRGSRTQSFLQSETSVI
Description: as §1, §2, §3

SMILES	IC50 (human VPAC1)	IC50 (human PAC1)	EC50 (rat VPAC1 receptor)	Rat Serum Stability (estimated purity in % after overnight incub.) [1]	IC50 (human VPAC2 [2])	EC50 (human VPAC2 [3])	EC50 (rat VPAC2 receptor)
CCCCCC(=O)N[C@@H](Cc1c[nH]cn1)C(=O)N[C@@H](CO)C(=O)N[C@@H](CC(=O)O)C(=O)N[C@@H](C)C(=O)N[C@H](C(=O)N[C@@H](Cc1ccccc1)C(=O)N[C@H](C(=O)N[C@@H](CC(=O)O)C(=O)N[C@@H](CC(N)=O)C(=O)N[C@@H](Cc1ccc(O)cc1)C(=O)N[C@H](C(=O)N[C@@H](CCCN)C(=O)N[C@@H](CC(C)C)C(=O)N[C@@H](CCCNC(=N)N)C(=O)NC(C)(C)C(=O)N[C@@H](CCC(N)=O)C(=O)N[C@H](C(=O)N[C@@H](C)C(=O)N[C@@H](C)C(=O)NC(C)(C)C(=O)N[C@@H](CCCCN)C(=O)N[C@@H](Cc1ccc(O)cc1)C(=O)N[C@@H](CO)C(=O)N[C@@H](CCC(N)=O)C(=O)N[C@@H](CO)C(=O)N[C@H](C(=O)N[C@@H](CCCN)C(=O)N[C@@H](CC(N)=O)C(=O)N[C@@H](CCCN)C(=O)NCC(=O)NCC(=O)N1CCC[C@H]1C(=O)N[C@@H](CO)C(=O)N[C@@H](CO)C(=O)NCC(=O)N[C@@H](C)C(=O)N1CCC[C@H]1C(=O)N1CCC[C@H]1C(=O)N1CCC[C@H]1C(=O)N[C@@H](CO)C(=O)O)[C@@H](C)CC)C(C)C)[C@@H](C)O)[C@@H](C)O)C(C)C [Agonist P384] (Hexanoyl-HSDAVFTDNYT[Orn]LR[Aib]QVAA[Aib]KYSQSI[Orn]N[Orn]GGPSSGAPPPS-OH; C-terminus assumed)	> 3000 nM	> 25000 nM	> 600 nM	96.45%	–	–	–
CCCCCC(=O)N[C@@H](Cc1c[nH]cn1)C(=O)N[C@@H](CO)C(=O)N[C@@H](CC(=O)O)C(=O)N[C@@H](C)C(=O)N[C@H](C(=O)N[C@@H](Cc1ccccc1)C(=O)N[C@H](C(=O)N[C@@H](CC(=O)O)C(=O)N[C@@H](CC(N)=O)C(=O)N[C@@H](Cc1ccc(O)cc1)C(=O)N[C@H](C(=O)N[C@@H](CCCN)C(=O)N[C@@H](CC(C)C)C(=O)N[C@@H](CCCNC(=N)N)C(=O)NC(C)(C)C(=O)N[C@@H](CCC(N)=O)C(=O)N[C@H](C(=O)N[C@@H](CO)C(=O)N[C@@H](C)C(=O)NC(C)(C)C(=O)N[C@@H](CCCCN)C(=O)N[C@@H](Cc1ccc(O)cc1)C(=O)N[C@@H](CC(C)C)C(=O)N[C@@H](CCC(N)=O)C(=O)N[C@@H](CO)C(=O)N[C@H](C(=O)N[C@@H](CCCN)C(=O)N[C@@H](CC(N)=O)C(=O)N[C@@H](CCCN)C(=O)NCC(=O)NCC(=O)N1CCC[C@H]1C(=O)N[C@@H](CO)C(=O)N[C@@H](CO)C(=O)NCC(=O)N[C@@H](C)C(=O)N1CCC[C@H]1C(=O)N1CCC[C@H]1C(=O)N1CCC[C@H]1C(=O)N[C@@H](CO)C(=O)O)[C@@H](C)CC)C(C)C)[C@@H](C)O)[C@@H](C)O)C(C)C [Agonist P388] (Hexanoyl-HSDAVFTDNYT[Orn]LR[Aib]QVSA[Aib]KYLQSI[Orn]N[Orn]GGPSSGAPPPS-OH; C-terminus assumed)	> 3000 nM	> 25000 nM	> 2000 nM	–	≥ 100 nM	–	–
CCCCCC(=O)N[C@@H](Cc1c[nH]cn1)C(=O)N[C@@H](CO)C(=O)N[C@@H](CC(=O)O)C(=O)N[C@@H](C)C(=O)N[C@H](C(=O)N[C@@H](Cc1ccccc1)C(=O)N[C@H](C(=O)N[C@@H](CC(=O)O)C(=O)N[C@@H](CCC(N)=O)C(=O)N[C@@H](Cc1ccc(OC)cc1)C(=O)N[C@H](C(=O)N[C@@H](CCCN)C(=O)N[C@@H](CC(C)C)C(=O)N[C@@H](CCCNC(=N)N)C(=O)NC(C)(C)C(=O)N[C@@H](CCC(N)=O)C(=O)N[C@@H](CC(C)C)C(=O)N[C@@H](C)C(=O)N[C@@H](C)C(=O)NC(C)(C)C(=O)N[C@@H](CCCN)C(=O)N[C@@H](Cc1ccc(O)cc1)C(=O)N[C@@H](CC(C)C)C(=O)N[C@@H](CCC(N)=O)C(=O)N[C@@H](CO)C(=O)N[C@H](C(=O)N[C@@H](CCCN)C(=O)N[C@@H](CCCN)C(=O)NCC(=O)NCC(=O)N1CCC[C@H]1C(=O)N[C@@H](CO)C(=O)N[C@@H](CO)C(=O)NCC(=O)N[C@@H](C)C(=O)N1CCC[C@H]1C(=O)N1CCC[C@H]1C(=O)N1CCC[C@H]1C(=O)N[C@@H](CO)C(=O)O)[C@@H](C)CC)[C@@H](C)O)[C@@H](C)O)C(C)C [Agonist P394] (Hexanoyl-HSDAVFTDQY(Me)T[Orn]LR[Aib]QLAA[Aib][Orn]YLQSI[Orn][Orn]GGPSSGAPPPS-OH; C-terminus assumed)	–	> 25000 nM	0.48 nM	–	–	0.11 nM	0.03 nM

Reference: patent US20080194482A1, “Selective Apac2 Receptor Peptide Agonists” (priority 2005, published 2008)
